One assay deals with T1, caspase-7 (Homo sapiens, UniProt P55210).
T1 construct: endogenous in cells; host or cells: A2058 human melanoma cells infected with delta-PK
T1 sequence (P55210 24-198 limits assumed): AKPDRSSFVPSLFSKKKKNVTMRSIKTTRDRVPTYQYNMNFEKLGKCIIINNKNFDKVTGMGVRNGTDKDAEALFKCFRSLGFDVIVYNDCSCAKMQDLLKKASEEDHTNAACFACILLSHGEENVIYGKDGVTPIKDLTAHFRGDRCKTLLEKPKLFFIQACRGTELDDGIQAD
T1 sequence (P55210 207-303 limits assumed): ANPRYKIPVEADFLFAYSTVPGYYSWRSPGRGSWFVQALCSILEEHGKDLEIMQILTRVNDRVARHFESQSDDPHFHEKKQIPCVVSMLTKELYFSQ
Nature of the assay: Immunoblotting for caspase-7 activation in infected melanoma cells. As to conditions: delta-PK infected cultures, 24 hrs p.i.; PD150606 100 μM; z-VAD-fmk 100 μM (Sigma-Aldrich) or 20 μM (Promega). The format is cell-based. An excerpt: FIG. 6. Calpain and caspase-7 and caspace-3 are activated in delta-PK infected melanoma cells. […] Data were quantified by densitometry and expressed as the ratio of the p76/p80 and p28 densitometric units +/−SD, respectively. Representatives of three replicate experiments are shown (***p<0.001 vs. Mock). B. The immunoblots in FIG. 6A were sequentially stripped and re-probed with antibodies to activated caspase-7, activated caspase-3, and actin. Data were quantified by densitometry and results are expressed as densitometric units +/−SD (**p<0.01, ***p<0.001 vs. Mock). C. […]
Cultured cells were lysed with radioimmunoprecipitation buffer [RIPA; 20 mM Tris-HCl (pH 7.4), […], 1% Nonidet P-40, 0.1% sodium dodecyl sulfate (SDS), 0.5% sodium deoxycholate] supplemented with protease and phosphatase inhibitor cocktails (Sigma-Aldrich), and sonicated twice for 30 seconds at 25% output power with a sonicator ultrasonic processor (Misonix, Inc., Farmingdale, N.Y.). […] Protein concentration was determined by the bicinchoninic assay (Pierce, Rockford, Ill.), and 100 μg protein samples were resolved by SDS-polyacrylamide gel elecrophoresis (SDS-PAGE) and transferred to polyvinylidene fluoride membranes followed by immunoblotting. […] Quantitation was by densitometric scanning with the Bio-Rad GS-700 imaging densitometer (Bio-Rad, Hercules, Calif.). […]
In general terms: In western blotting, separated proteins are transferred to a membrane and probed.

A further assay deals with A2058 cells. Nature of the assay: EtHD cell death with or without protease inhibitors, A2058. As to conditions: A2058, delta-PK moi=0.5, 72 hrs p.i.; PD150606 100 μM or z-VAD-fmk 20 μM. Format: cell-based, human. The procedure:
FIG. 7. Delta-PK induced melanoma cell death is both calpain and caspase-dependent. A. A2058 cells were infected with delta-PK (moi=0.5) or mock-infected with PBS and cultured without or with PD150606 (100 μM), z-VAD-fmk (20 µM) or both PD150606 and z-VAD-fmk. DMSO (28 mM) was used as vehicle control. Replicate cultures (n=3) were stained with EtHD at various times p.i. and the % staining cells calculated. B. A375 cells were infected with delta-PK (moi=0.5) in the absence or presence of inhibitors and stained with EtHD+. Delta-PK infected WI-38 cells and mock infected DMSO treated cells served as controls.
Cell death was determined by trypan blue exclusion and staining with ethidium homodimer-1 (EtHD), a cell impermeable red fluorescent nuclear stain that increases intensity after binding to the DNA of dead cells. […] Dead cells were counted by four independent hemacytometer counts. […] Stained cells were counted in five randomly selected 3 mm^2 fields (≧250 cells each), and the % positive cells was calculated relative to total number of cells imaged by phase contrast microscopy (Gober M D, Laing J M, Thompson S M, Aurelian L. The growth compromised HSV-2 mutant DeltaRR prevents kainic acid-induced apoptosis and loss of function in organotypic hippocampal cultures. Brain Res 2006; 1119: 26-39). […]

Peptide text beside a SMILES is read from it. * marks the point of attachment. Cbz = O=C(OCc1ccccc1)*; CH2F = FC*

Take `O=C(O)/C(S)=C/c1ccc(I)cc1` [PD150606]: the “effect of inhibitor on delta-PK induced caspase-7 activation / cleavage products” value at caspase-7 is “increased”. In the assay with A2058 cells, the “% EtHD+ cells in delta-PK infected cultures in presence of inhibitor” value was 30.7+/−2.8%.
`COC(=O)C[C@H](NC(=O)[C@H](C)NC(=O)[C@@H](NC(=O)OCc1ccccc1)C(C)C)C(=O)CF` [z-VAD-fmk, benzyloxcarbonyl-Val-Ala-Asp-fluormethyl ketone] (Cbz-Val-Ala-Asp(OMe)-CH2F): on caspase-7, the “effect of inhibitor on delta-PK induced caspase-7 activation / cleavage products” value is given as “inhibited”. Moreover, the “% EtHD+ cells in delta-PK infected cultures in presence of inhibitor” value with A2058 cells is reported as 35.8+/−2.5%.
